{
  "source": "paper PMC3436870",
  "about": "“The Conserved Residue Arg46 in the N-Terminal Heptad Repeat Domain of HIV-1 gp41 Is Critical for Viral Fusion and Entry” (PLoS ONE, 2012)",
  "key": {"[1]": {"system": "HIV-1IIIB-mediated cell-cell fusion (H9/HIV-1IIIB-infected cells with MT-2 cells)", "assay_type": "cell-based", "details": "calcein-AM-labeled H9/HIV-1IIIB-infected cells with MT-2 cells (ratio 1:5), 37°C, 2 h; fused cells counted under fluorescence microscope; read-out: IC50 (nM) for inhibition of HIV-1IIIB-mediated cell-cell fusion", "description": "To detect HIV-1 mediated cell-cell fusion, we performed a dye transfer assay as previously described. […] Then under an inverted fluorescence microscope (Zeiss, Germany) with an eyepiece micrometer disc, we calculated the fused and unfused calcein-labeled HIV-1-infected cells. Previously developed methods were applied to calculate the percent inhibition of cell-cell fusion and the IC50 values."}, "HIV-1 IIIB": {"system": "HIV-1 IIIB", "assay": "Inhibition of HIV-1IIIB infection of MT-2 cells, p24 ELISA", "assay_type": "cell-based", "details": "HIV-1 IIIB at 100 TCID50, peptide overnight, p24 antigen ELISA on fourth day post-infection", "description": "The inhibitory activity of the NHR- and CHR-peptides on HIV-1IIIB infection was determined as previously described. In brief, 1×10^4 MT-2 cells were infected with HIV-1 IIIB at 100 TCID50 (50% tissue culture infective dose) in 200 µl culture medium in the presence or absence of the test peptide overnight. Then the culture supernatants were removed, and fresh media were added. On the fourth day post-infection, 100 µl of culture supernatants were collected from each well, mixed with equal volumes of 5% Triton X-100 and assayed for p24 antigen by an in-house ELISA as described before."}},
  "note": "Ends that are not written are not given here.",
  "data": [
    {"sequence": "WMEWDREINNYTSLIHSLIEASQNQQEKNEQELL [C34 E137A]", "values": [
      {"measurement": "IC50", "setting": "[1]", "value": "4.681 ± 0.029", "unit": "nM"},
      {"measurement": "IC50", "setting": "HIV-1 IIIB", "value": "12.2 ± 1.28", "unit": "nM"}
    ]},
    {"sequence": "WMEWDREINNYTSLIHSLIERSQNQQEKNEQELL [C34 E137R]", "values": [
      {"measurement": "IC50", "setting": "[1]", "value": "5.32 ± 1.29", "unit": "nM"},
      {"measurement": "IC50", "setting": "HIV-1 IIIB", "value": "22.1 ± 1.8", "unit": "nM"}
    ]}
  ]
}
